Data as given in publication PMC4287973, “Tumor cell-specific inhibition of MYC function using small molecule inhibitors of the HUWE1 ubiquitin ligase” (EMBO Molecular Medicine, 2014).
Where a SMILES comes first, the peptide text is derived from it. The star is where a group is joined. Cbz = O=C(OCc1ccccc1)*

Test system: MIZ1
Experiment: HUWE1-mediated decrease in MIZ1 levels in transfected HeLa cells
Type: cell-based
Details: MG132 10 µM for 6 hrs
From the text: Neither depletion nor chemical inhibition of HUWE1 affected the expression of any member of the MXD family of repressor proteins that antagonize transactivation by MYC or nuclear localization of MYC (Supplementary Figs S9A and S10). […] In contrast, ectopic expression of HUWE1 had only moderate effects on steady-state levels of MYC, consistent with the results obtained in response to depletion of HUWE1 (Fig6A). As a result, ectopic expression of HUWE1 increased the relative amount of MYC that is not bound to MIZ1 (Fig6B). […] Consistently, depletion or chemical inhibition of HUWE1 increased steady-state levels of MIZ1 in colon carcinoma cells (Fig6D and E). Similarly, depletion or inhibition of HUWE1 increased levels of MIZ1 in mouse keratinocytes (Supplementary Fig S11B and C), in which HUWE1 is known to degrade MIZ1 (Inoue et al, [2013]).
Peter et al. HUWE1 inhibition
B. Immunofluorescence staining of MYC upon HUWE1 inhibition. Ls174T cells were treated […]
Supplementary Figure S11: Characterization of HUWE1 effects on MIZ1 stability.
A, Effect of proteasome inhibition on HUWE1-induced downregulation of MIZ1. HeLa cells were transfected with plasmids encoding MIZ1 and HA-HUWE1. Cells were treated with BI8622 (20 µM) for 24 hrs, DMSO served as solvent control. MG132 was used at 10 µM for 6 hrs. Lysates were analyzed for expression of HUWE1 and MIZ1, Vinculin was used as […]

## CC(C)C[C@@H](C=O)NC(=O)[C@H](CC(C)C)NC(=O)[C@H](CC(C)C)NC(=O)OCc1ccccc1 [MG132] (Cbz-Leu-Leu-Leu-aldehyde)
  HUWE1-mediated decrease in MIZ1 levels: blocked
